Reference: PubChem BioAssay (NCI)
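At the GI50, growth is halved. TGI marks complete inhibition of growth.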

Assays:
Assay in all cases: NCI tumour cell line growth inhibition, 384-well format
786-0 renal = system: 786-0 renal
A498 renal = system: A498 renal
A549 NSCLC = system: A549 NSCLC
CCRF-CEM leukemia = system: CCRF-CEM leukemia
COLO 205 colon = system: COLO 205 colon
DU-145 prostate = system: DU-145 prostate
EKVX NSCLC = system: EKVX NSCLC
HCC-2998 colon = system: HCC-2998 colon
HL-60(TB) leukemia = system: HL-60(TB) leukemia
HOP-92 NSCLC = system: HOP-92 NSCLC
HS 578T breast = system: HS 578T breast
HT29 colon = system: HT29 colon
IGROV1 ovarian = system: IGROV1 ovarian
LOX IMVI melanoma = system: LOX IMVI melanoma
M14 melanoma = system: M14 melanoma
MALME-3M melanoma = system: MALME-3M melanoma
MCF7 breast = system: MCF7 breast
MDA-MB-231 breast = system: MDA-MB-231 breast
MDA-MB-468 breast = system: MDA-MB-468 breast
MOLT-4 leukemia = system: MOLT-4 leukemia
NCI-H23 lung = system: NCI-H23 lung
NCI-H322M lung = system: NCI-H322M lung
NCI-H460 NSCLC = system: NCI-H460 NSCLC
NCI-H522 lung = system: NCI-H522 lung
NCI/ADR-RES ovarian = system: NCI/ADR-RES ovarian
OVCAR-3 ovarian = system: OVCAR-3 ovarian
OVCAR-4 ovarian = system: OVCAR-4 ovarian
OVCAR-5 ovarian = system: OVCAR-5 ovarian
OVCAR-8 ovarian = system: OVCAR-8 ovarian
PC-3 prostate = system: PC-3 prostate
RPMI-8226 leukemia = system: RPMI-8226 leukemia
RXF 393 renal = system: RXF 393 renal
SF-268 CNS = system: SF-268 CNS
SF-295 CNS = system: SF-295 CNS
SF-539 CNS = system: SF-539 CNS
SK-MEL-2 melanoma = system: SK-MEL-2 melanoma
SK-MEL-28 melanoma = system: SK-MEL-28 melanoma
SK-MEL-5 melanoma = system: SK-MEL-5 melanoma
SN12C renal = system: SN12C renal
SNB-19 CNS = system: SNB-19 CNS
SR leukemia = system: SR leukemia
SW-620 colon = system: SW-620 colon
T-47D breast = system: T-47D breast
U251 glioblastoma = system: U251 glioblastoma
UACC-257 melanoma = system: UACC-257 melanoma
UACC-62 melanoma = system: UACC-62 melanoma
UO-31 renal = system: UO-31 renal

CC(C)n1cc(-c2ccc3c(c2)N(C)CC3)c2c(NS(=O)(=O)c3ccn(C)n3)ccnc21
GI50 (786-0 renal): > 100 µM | TGI (786-0 renal): > 100 µM | GI50 (A498 renal): 85.7 µM | TGI (A498 renal): > 100 µM | GI50 (A549 NSCLC): 47.1 µM | TGI (A549 NSCLC): > 100 µM | GI50 (CCRF-CEM leukemia): 45.3 µM | TGI (CCRF-CEM leukemia): > 100 µM | GI50 (COLO 205 colon): > 78.9 µM | TGI (COLO 205 colon): > 100 µM | GI50 (DU-145 prostate): > 70.7 µM | TGI (DU-145 prostate): > 100 µM | GI50 (EKVX NSCLC): 75.6 µM | TGI (EKVX NSCLC): > 100 µM | GI50 (HCC-2998 colon): > 100 µM | TGI (HCC-2998 colon): > 100 µM | GI50 (HL-60(TB) leukemia): 33.1 µM | TGI (HL-60(TB) leukemia): > 61.4 µM | GI50 (HOP-92 NSCLC): > 62.9 µM | TGI (HOP-92 NSCLC): > 100 µM | GI50 (HS 578T breast): 69.3 µM | TGI (HS 578T breast): > 100 µM | GI50 (HT29 colon): > 77.2 µM | TGI (HT29 colon): > 100 µM | GI50 (IGROV1 ovarian): > 74.4 µM | TGI (IGROV1 ovarian): > 100 µM | GI50 (LOX IMVI melanoma): 65.8 µM | TGI (LOX IMVI melanoma): > 100 µM | GI50 (M14 melanoma): > 100 µM | TGI (M14 melanoma): > 100 µM | GI50 (MALME-3M melanoma): > 100 µM | TGI (MALME-3M melanoma): > 100 µM | GI50 (MCF7 breast): 56.3 µM | TGI (MCF7 breast): > 100 µM | GI50 (MDA-MB-231 breast): > 68.8 µM | TGI (MDA-MB-231 breast): > 100 µM | GI50 (MDA-MB-468 breast): 56.8 µM | TGI (MDA-MB-468 breast): > 100 µM | GI50 (MOLT-4 leukemia): 39.1 µM | TGI (MOLT-4 leukemia): > 100 µM | GI50 (NCI-H23 lung): > 70 µM | TGI (NCI-H23 lung): > 100 µM | GI50 (NCI-H322M lung): > 100 µM | TGI (NCI-H322M lung): > 100 µM | GI50 (NCI-H460 NSCLC): > 85.7 µM | TGI (NCI-H460 NSCLC): > 100 µM | GI50 (NCI-H522 lung): > 80.4 µM | TGI (NCI-H522 lung): > 100 µM | GI50 (NCI/ADR-RES ovarian): 61.2 µM | TGI (NCI/ADR-RES ovarian): > 100 µM | GI50 (OVCAR-3 ovarian): 40.5 µM | TGI (OVCAR-3 ovarian): > 87.6 µM | GI50 (OVCAR-4 ovarian): 59.8 µM | TGI (OVCAR-4 ovarian): > 100 µM | GI50 (OVCAR-5 ovarian): > 100 µM | TGI (OVCAR-5 ovarian): > 100 µM | GI50 (OVCAR-8 ovarian): > 70.4 µM | TGI (OVCAR-8 ovarian): > 100 µM | GI50 (PC-3 prostate): 66.7 µM | TGI (PC-3 prostate): > 100 µM | GI50 (RPMI-8226 leukemia): 21.8 µM | TGI (RPMI-8226 leukemia): 52.9 µM | GI50 (RXF 393 renal): 51.2 µM | TGI (RXF 393 renal): > 100 µM | GI50 (SF-268 CNS): > 100 µM | TGI (SF-268 CNS): > 100 µM | GI50 (SF-295 CNS): 37 µM | TGI (SF-295 CNS): > 91.2 µM | GI50 (SF-539 CNS): > 100 µM | TGI (SF-539 CNS): > 100 µM | GI50 (SK-MEL-2 melanoma): > 100 µM | TGI (SK-MEL-2 melanoma): > 100 µM | GI50 (SK-MEL-28 melanoma): > 93.5 µM | TGI (SK-MEL-28 melanoma): > 100 µM | GI50 (SK-MEL-5 melanoma): > 100 µM | TGI (SK-MEL-5 melanoma): > 100 µM | GI50 (SN12C renal): > 100 µM | TGI (SN12C renal): > 100 µM | GI50 (SNB-19 CNS): > 100 µM | TGI (SNB-19 CNS): > 100 µM | GI50 (SR leukemia): 36.5 µM | TGI (SR leukemia): > 100 µM | GI50 (SW-620 colon): > 51.5 µM | TGI (SW-620 colon): > 81.7 µM | GI50 (T-47D breast): 50.9 µM | TGI (T-47D breast): > 100 µM | GI50 (U251 glioblastoma): 87.1 µM | TGI (U251 glioblastoma): > 100 µM | GI50 (UACC-257 melanoma): > 100 µM | TGI (UACC-257 melanoma): > 100 µM | GI50 (UACC-62 melanoma): 63.4 µM | TGI (UACC-62 melanoma): > 100 µM | GI50 (UO-31 renal): 78.6 µM | TGI (UO-31 renal): > 100 µM
